According to PubChem BioAssay (NCI):
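Exposure lasted 48 hours, with cells grown in 96-well plates and compounds tested at five concentrations. Definition used: TGI = concentration required for complete inhibition of growth.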

What was measured:
Test in all cases: NCI anticancer screen, dose series, 48 h
[1] = test system: 786-0 renal
[2] = test system: A498 renal
[3] = test system: A549 NSCLC
[4] = test system: ACHN renal
[5] = test system: BT-549 breast
[6] = test system: CAKI-1 renal
[7] = test system: CCRF-CEM leukemia
[8] = test system: COLO 205 colon
[9] = test system: DU-145 prostate
[10] = test system: EKVX NSCLC
[11] = test system: HCC-2998 colon
[12] = test system: HCT-116 colon
[13] = test system: HCT-15 colon
[14] = test system: HL-60(TB) leukemia
[15] = test system: HOP-62 NSCLC
[16] = test system: HOP-92 NSCLC
[17] = test system: HT29 colon
[18] = test system: KM12 colon
[19] = test system: LOX IMVI melanoma
[20] = test system: M14 melanoma
[21] = test system: MALME-3M melanoma
[22] = test system: MCF7 breast
[23] = test system: MDA-MB-231 breast
[24] = test system: MDA-MB-435
[25] = test system: MDA-N
[26] = test system: MOLT-4 leukemia
[27] = test system: NCI-H226 lung
[28] = test system: NCI-H23 lung
[29] = test system: NCI-H460 lung
[30] = test system: NCI/ADR-RES ovarian
[31] = test system: OVCAR-3 ovarian
[32] = test system: OVCAR-5 ovarian
[33] = test system: OVCAR-8 ovarian
[34] = test system: PC-3 prostate
[35] = test system: RPMI-8226 leukemia
[36] = test system: SF-268 CNS
[37] = test system: SF-295 CNS
[38] = test system: SF-539 CNS
[39] = test system: SK-MEL-28 melanoma
[40] = test system: SK-MEL-5 melanoma
[41] = test system: SK-OV-3 ovarian
[42] = test system: SN12C renal
[43] = test system: SNB-19 CNS
[44] = test system: SR leukemia
[45] = test system: SW-620 colon
[46] = test system: T-47D breast
[47] = test system: TK-10 renal
[48] = test system: U251 CNS
[49] = test system: UACC-257 melanoma
[50] = test system: UO-31 renal
[51] = test system: HS 578T breast
[52] = test system: IGROV1 ovarian
[53] = test system: K-562 leukemia
[54] = test system: OVCAR-4 ovarian
[55] = test system: SK-MEL-2 melanoma
[56] = test system: UACC-62 melanoma
[57] = test system: NCI-H522 lung
[58] = test system: RXF 393 renal
[59] = test system: SNB-75 CNS

CC1(C)OC(=O)C(=Cc2ccc([N+](=O)[O-])s2)C(=O)O1
TGI [1]: 32.2 µM | TGI [2]: 54.7 µM | TGI [3]: > 100 µM | TGI [4]: 27.3 µM | TGI [5]: 26.8 µM | TGI [6]: 29.5 µM | TGI [7]: 88.6 µM | TGI [8]: 31 µM | TGI [9]: 30.9 µM | TGI [10]: 31.8 µM | TGI [11]: 24.7 µM | TGI [12]: 9.84 µM | TGI [13]: 14.2 µM | TGI [14]: 5.59 µM | TGI [15]: 35.1 µM | TGI [16]: 37.9 µM | TGI [17]: 38.5 µM | TGI [18]: 29 µM | TGI [19]: 32.6 µM | TGI [20]: 26.5 µM | TGI [21]: 34.2 µM | TGI [22]: 68.4 µM | TGI [23]: 36.4 µM | TGI [24]: 30.4 µM | TGI [25]: 32.5 µM | TGI [26]: 24.6 µM | TGI [27]: 60.5 µM | TGI [28]: 39.1 µM | TGI [29]: > 100 µM | TGI [30]: 39.8 µM | TGI [31]: 23.2 µM | TGI [32]: 31.2 µM | TGI [33]: 31.3 µM | TGI [34]: 38.1 µM | TGI [35]: 37.1 µM | TGI [36]: 29.5 µM | TGI [37]: 30.4 µM | TGI [38]: 29.4 µM | TGI [39]: 34.6 µM | TGI [40]: 30 µM | TGI [41]: 65.3 µM | TGI [42]: 31.6 µM | TGI [43]: 31.6 µM | TGI [44]: 6.31 µM | TGI [45]: 4.1 µM | TGI [46]: 38 µM | TGI [47]: 31.5 µM | TGI [48]: 30.4 µM | TGI [49]: 35.8 µM | TGI [50]: 23.6 µM

Cc1cc(-c2cscn2)c(O)c([N+](=O)[O-])c1
TGI [1]: > 100 µM | TGI [2]: 99.7 µM | TGI [3]: > 100 µM | TGI [4]: > 100 µM | TGI [5]: > 100 µM | TGI [6]: > 100 µM | TGI [7]: > 100 µM | TGI [8]: > 100 µM | TGI [10]: > 100 µM | TGI [11]: > 100 µM | TGI [12]: > 100 µM | TGI [13]: > 100 µM | TGI [14]: > 100 µM | TGI [15]: > 100 µM | TGI [16]: > 100 µM | TGI [51]: > 100 µM | TGI [17]: > 100 µM | TGI [52]: > 100 µM | TGI [53]: > 100 µM | TGI [19]: > 100 µM | TGI [20]: > 100 µM | TGI [21]: > 100 µM | TGI [22]: > 100 µM | TGI [24]: > 100 µM | TGI [25]: > 100 µM | TGI [28]: > 100 µM | TGI [29]: > 100 µM | TGI [30]: > 100 µM | TGI [54]: > 100 µM | TGI [32]: > 100 µM | TGI [33]: > 100 µM | TGI [34]: > 100 µM | TGI [35]: > 100 µM | TGI [37]: > 100 µM | TGI [38]: > 100 µM | TGI [55]: > 100 µM | TGI [40]: > 100 µM | TGI [41]: 96 µM | TGI [42]: > 100 µM | TGI [43]: > 100 µM | TGI [45]: > 100 µM | TGI [47]: > 100 µM | TGI [49]: > 100 µM | TGI [56]: > 100 µM | TGI [50]: > 100 µM

CCOC(=O)C(NC(=O)c1ccccc1)(Nc1ccc(S(=O)(=O)Nc2cc(C)nc(C)n2)cc1)C(F)(F)F (configuration not stated)
TGI [1]: > 100 µM | TGI [2]: > 100 µM | TGI [3]: > 100 µM | TGI [4]: > 100 µM | TGI [6]: > 100 µM | TGI [7]: > 100 µM | TGI [8]: > 100 µM | TGI [9]: > 100 µM | TGI [10]: > 100 µM | TGI [12]: > 100 µM | TGI [13]: > 100 µM | TGI [14]: > 100 µM | TGI [15]: > 100 µM | TGI [16]: > 100 µM | TGI [51]: > 100 µM | TGI [17]: > 100 µM | TGI [52]: > 100 µM | TGI [53]: > 100 µM | TGI [18]: > 100 µM | TGI [19]: > 100 µM | TGI [20]: > 100 µM | TGI [21]: > 100 µM | TGI [22]: > 100 µM | TGI [23]: > 100 µM | TGI [24]: > 100 µM | TGI [25]: > 100 µM | TGI [26]: > 100 µM | TGI [27]: > 100 µM | TGI [28]: > 100 µM | TGI [29]: > 100 µM | TGI [57]: > 100 µM | TGI [30]: > 100 µM | TGI [31]: > 100 µM | TGI [54]: > 100 µM | TGI [32]: > 100 µM | TGI [33]: > 100 µM | TGI [34]: > 100 µM | TGI [35]: > 100 µM | TGI [58]: > 100 µM | TGI [36]: > 100 µM | TGI [37]: > 100 µM | TGI [38]: > 100 µM | TGI [55]: > 100 µM | TGI [39]: > 100 µM | TGI [40]: > 100 µM | TGI [42]: > 100 µM | TGI [43]: > 100 µM | TGI [59]: > 100 µM | TGI [44]: > 100 µM | TGI [45]: > 100 µM | TGI [46]: > 100 µM | TGI [47]: > 100 µM | TGI [48]: > 100 µM | TGI [49]: > 100 µM | TGI [56]: > 100 µM | TGI [50]: > 100 µM

CCCCCC1=C2C(c3ccc(OC)cc3)=C(N)C(c3ccc(OC)cc3)=C3NC(=O)C(C=C1)C32 (configuration not stated)
TGI [1]: > 100 µM | TGI [2]: > 100 µM | TGI [3]: > 100 µM | TGI [4]: > 100 µM | TGI [5]: > 100 µM | TGI [6]: > 100 µM | TGI [7]: > 100 µM | TGI [8]: > 100 µM | TGI [9]: > 100 µM | TGI [10]: > 100 µM | TGI [11]: > 100 µM | TGI [12]: > 100 µM | TGI [13]: > 100 µM | TGI [14]: > 100 µM | TGI [15]: > 100 µM | TGI [16]: 60.7 µM | TGI [17]: > 100 µM | TGI [52]: > 100 µM | TGI [53]: > 100 µM | TGI [18]: > 100 µM | TGI [19]: > 100 µM | TGI [20]: > 100 µM | TGI [21]: 53.7 µM | TGI [22]: > 100 µM | TGI [23]: > 100 µM | TGI [24]: > 100 µM | TGI [25]: > 100 µM | TGI [26]: > 100 µM | TGI [27]: 96.8 µM | TGI [28]: > 100 µM | TGI [29]: > 100 µM | TGI [57]: 68 µM | TGI [30]: > 100 µM | TGI [31]: > 100 µM | TGI [54]: > 100 µM | TGI [32]: > 100 µM | TGI [33]: > 100 µM | TGI [34]: > 100 µM | TGI [35]: > 100 µM | TGI [58]: 54.1 µM | TGI [36]: 38.9 µM | TGI [37]: > 100 µM | TGI [55]: > 100 µM | TGI [39]: > 100 µM | TGI [40]: > 100 µM | TGI [41]: > 100 µM | TGI [42]: > 100 µM | TGI [43]: > 100 µM | TGI [59]: > 100 µM | TGI [45]: > 100 µM | TGI [46]: > 100 µM | TGI [47]: > 100 µM | TGI [48]: > 100 µM | TGI [49]: > 100 µM | TGI [56]: > 100 µM | TGI [50]: > 100 µM
